According to patent US20180369186A1, “METHOD FOR MODULATING AUTOPHAGY AND APPLICATIONS THEREOF” (JAWAHARLAL NEHRU CENTRE FOR ADVANCED SCIENTIFIC RESEARCH, priority 2015, published 2018):

Key:
lysosome = assay: Lysosomal function (lysotracker, LAMP1) in HeLa cells; type: cell-based, human
[1] = test system: autophagy (degradation of firefly luciferase); assay: Dual luciferase assay to monitor autophagy in real time; type: cell-based, S. cerevisiae; conditions: 1 μM, 10 μM, 25 μM and 50 μM
From the text: The S. cerevisiae shuttle vectors pRS306 (URA) and pRS305 (LEU) are used to clone the POT1 promoter and the Firefly and Renilla luciferase genes, respectively. The oleate responsive region of the POT1 promoter is amplified from yeast genomic DNA and along with the firefly and Renilla luciferase genes (firefly gene from pMY30 and Renilla gene from pRL-TK) is cloned into these vectors to obtain the constructs pPM3 and pPM5. These plasmid constructs are linearized using suitable restriction enzymes in the selection marker and transformed into wild type strains of S. cerevisiae and P. pastoris by standard transformation methods-Lithium acetate or PEG based transformation. […]
To validate the luciferase assay developed in the laboratory, it is compared to the conventional Pot1-GFP processing assay, Both pexophagy and general autophagy are measured by following the rates of degradation of firefly and Renilla activities (FIG. 1A).
Thus, a 3 standard deviation (SD) parameter is used as a criterion to obtain the hits from the primary screen. […] Both the inhibitors show a dose dependent inhibition in autophagy as determined using luciferase assay wherein inhibition by concentrations 1 μM, 10 μM, 25 μM and 50 μM of the inhibitors are assessed and inhibition is observed to increase as concentration increases from 1 μM to 50 μM. […]

Pot1-GFP (peroxisomes) = assay: Pot1-GFP pexophagy assay; type: cell-based, S. cerevisiae
Protocol: Pot1-GFP positive strains are allowed to grow till the A600 reached 0.8-1 in YPD. Peroxisome biogenesis is induced by growing these cells in oleate medium (0.1% oleate, 0.5% Tween-40, 0.25% yeast extract, 0.5% peptone, and 5 mM phosphate buffer) for 12hours. Cells are harvested, washed twice to remove traces of oleate and transferred to starvation medium without nitrogen, at inoculum density A600 3, to induce pexophagy. Cells are collected at various time intervals after pexophagy induction and processed by TCA method.
Pot1-GFP positive strains are allowed to grow in yeast extract peptone dextrose (YPD) (2% dextrose, 2% peptone and 1% yeast extract) till the Absorbance at 600 nm reaches 0.6-0.8. Peroxisome biogenesis is induced by growing these cells in YPG medium (1% yeast extract, 2% peptone, 3% glycerol) for 12 hours.
Cells are harvested, washed twice to remove traces of oleate and transferred to starvation medium with and without Acacetin, at. inoculum density Absorbance at 600 nm 3/ml, to induce pexophagy. Cells are collected at various time intervals after pexophagy induction and processed by TCA precipitation.

Atg8 = Atg8 immunolocalization in lace plant; type: cell-based, Aponogeton madagascariensis; conditions: two hours; same modulator concentrations as MDC; control 0.90±0.08
Protocol: Whole leaves are treated for two hours prior to fixation in 100% Methanol at 37° C. and then hydrophilized to 20% methanol by adding distilled water at 60° C. every two minutes for 32 minutes. Samples are then sectioned and placed on a multiwall slide and allowed to air dry for 10 minutes to facilitate membrane permeabilization. Blocking is done for 30 minutes at 37° C. with 4% low fat milk powder in 1× microtubule stabilization buffer MTSB (Modified 2× MTSB stock solution: 15 g PIPES, 1.9 g EDTA, 1.22 g MgSO4*7H2O and 2.5 g KOH—pH 7.0). Primary antibody incubation for anti-rabbit ATG8 (Agrisera, AS14 2769) is done at a 1:1000 dilution in 1× MTSB for 30 minutes at 37° C. Samples are then washed for 5 minutes, 3 times with 1× MTSB. Secondary antibody incubation with Goat anti-rabbit Dylight 488 (Agrisera AS09 633) at a 1:2000 dilution in 1× MTSB is done for 30 minutes at 37° C. and then samples are rinsed as above. Tissues are mounted in Mowiol 4-88 solution (Sigma, 81381) and scanned via confocal microscopy as mentioned above. The mean number of puncta per cell is determined using maximum intensity projections (MIPs) for each replicate. The total number of cells within a field of view are counted manually and the number of puncta are counted automatically using ImageJ.

[2] = test system: lace plant (Aponogeton madagascariensis) cells; assay: Lace plant leaf MDC staining of punctate structures; type: cell-based
Protocol: Axenic lace plant cultures are grown in magenta boxes and prepared according to Gunawardena et al. Leaves in the window stage are removed from the corm and rinsed thoroughly with distilled water prior to being sectioned into 2 mm^2 pieces. For starvation treatments, window stage leaves are removed from the plant, placed in distilled water and kept in the dark overnight.
Leaf sections are stained with monodansylcadaverine (MDC; 300 μM) (Sigma, D4008) and simultaneously treated with autophagy modulators for 2 hours in the dark. (1 hour vacuum infiltration at 15 psi). Treatment times, along with stain and modulator applications are optimized using concentration gradients followed by microscopy. The optimized concentrations are 5 μM rapamycin (Enzo Life Sciences (BML A275-0005), 5 μM wortmannin (Santa Cruz Biotechnology, sc-3505), 1 μM concanamycin A (Santa Cruz Biotechnology, sc-202111), 50 μM Bay 11 (Sigma, B5556) and 50 μM ZPCK (Sigma, 860794).
Tissue sections are then rinsed and mounted in distilled water prior to being scanned using a Nikon Eclipse Ti confocal microscope (Nikon 40X/1.30, Plan Fluor, 405 nm excitation and 450/30 nm emission). Areoles in the early phases of PCD are scanned to avoid cellular debris. The mean number of puncta are quantified for each treatment group with a minimum of four independent experiments using NIS Elements Advanced Research software. Additionally, starvation treatment leaves are also exposed to 5 μM, wortmannin, 50 μM Bay11 and 50 μM ZPCK treatments and then qualitatively assessed via confocal microscopy.

HeLa and SH-SY5Y cells = assay: Cell viability of HeLa and SH-SY5Y after 72 h (CellTitre Glo); type: cell-based, human; conditions: various concentrations
Protocol: In another embodiment of the present disclosure, FIG. 47 illustration non-toxicity of XCT 790 to cells (Hela and SHSY5Y) and scheme for α-synculein toxicity assay. Cell viability of cell lines like HeLa (a) and SH-SY5Y (b) after 72 h of XCT 790 treatments for various indicated concentrations. Cell viability was assayed using CellTitre Glo (Promega) kit.

O=C1Nc2cc(Br)ccc2/C1=C1/Nc2ccccc2/C1=N\O [6-Bio, (2′Z,3′E)-6-Bromoindirubin-3′-oxime]
LAMP1 positive vesicle intensities and distribution (lysosome): unaltered | lysotracker staining (lysosome acidification) (lysosome; 2 h): no change in lysosome acidification

Cc1ccc(S(=O)(=O)/C=C/C#N)cc1 [Bay11, 3-[(4-methylphenyl)sulfonyl]-(2E)-propenenitrile]
effect on rates of degradation of firefly luciferase (inhibition of autophagy) [1]: dose dependent effect | degradation of peroxisomes (Pot1-GFP) (Pot1-GFP (peroxisomes); starvation): delay the degradation of peroxisomes | localisation of peroxisomes (fluorescence microscopy) (Pot1-GFP (peroxisomes); starvation, 25 μM Bay11, 50 μM ZPCK): accumulate outside the vacuoles | free GFP release from Pot1-GFP (Pot1-GFP (peroxisomes); wild type cells, up to 6 hours of starvation): No free GFP release | mean number of Atg8 puncta per cell (Atg8): 0.22±0.03 | mean number of punctate structures per cell (MDC) ([2]; 2 hours, 5 μM wortmannin, 50 μM Bay11, 1 μM concanamycin A, rapamycin, 50 μM ZPCK, control 0.99±0.12): 0.28±0.07 | puncta in overnight starvation leaves ([2]; overnight starvation combined with 5 μM wortmannin, 50 μM Bay11 or 50 μM ZPCK): fewer puncta

COc1cc(C=C(C#N)C(=O)Nc2nnc(C(F)(F)F)s2)ccc1OCc1ccc(C(F)(F)F)cc1C(F)(F)F [XCT 790, 3-[4-(2,4-Bis-trifluoromethylbenzyloxy)-3-methoxyphenyl]-2-cyano-N-(5-trifluoromethyl-1,3,4-thiadiazol-2-yl)acrylamide]
toxicity to cells (HeLa and SH-SY5Y cells): non-toxicity
